Results on twelve molecules are retold here after ChEMBL document CHEMBL1133199, “Synthesis and uptake of nitric oxide-releasing drugs by the P2 nucleoside transporter in Trypanosoma equiperdum” (Bioorg Med Chem Lett, 2000).

For one series, the target named is T1, Adenosine transporter 1 (Trypanosoma brucei, UniProt Q9Y0I0).
T1 sequence (Q9Y0I0 whole entry): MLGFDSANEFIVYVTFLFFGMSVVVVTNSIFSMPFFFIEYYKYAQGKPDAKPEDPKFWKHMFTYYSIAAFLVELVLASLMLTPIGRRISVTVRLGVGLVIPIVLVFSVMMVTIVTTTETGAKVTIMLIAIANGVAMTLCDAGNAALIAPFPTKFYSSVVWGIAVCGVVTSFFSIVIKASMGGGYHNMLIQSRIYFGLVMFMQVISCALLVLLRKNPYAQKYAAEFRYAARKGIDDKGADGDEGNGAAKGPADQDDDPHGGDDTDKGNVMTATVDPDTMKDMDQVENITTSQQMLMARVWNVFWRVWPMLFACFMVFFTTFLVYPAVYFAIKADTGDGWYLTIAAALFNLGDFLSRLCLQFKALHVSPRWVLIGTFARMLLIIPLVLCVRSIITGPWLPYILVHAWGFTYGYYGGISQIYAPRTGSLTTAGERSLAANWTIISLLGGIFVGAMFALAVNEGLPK
As to the kind of experiment: (§1) Compound was tested for inhibition of Adenosine transporter P2 type by using [2-3H]adenosine as radioligand in Trypanosoma equiperdum.

Compound in series [1]: Nc1ncnc2c1ncn2[C@@H]1O[C@H](CO)[C@@H](O)[C@H]1O
The description is as §1.

Some results are limits rather than exact numbers.

What is called Ki is a dissociation constant, usually derived from enzyme kinetics or from competition with a known ligand. A high value points to lower affinity. The molecule `Nc1nc(N)nc(Nc2ccc(CCO[N+](=O)[O-])cc2)n1` registered a Ki at Adenosine transporter 1 of 0.2 µM.

As for `Nc1ncnc2c1ncn2[C@@H]1O[C@H](CO[N+](=O)[O-])[C@@H](O)[C@H]1O`, at Adenosine transporter 1, the Ki amounted to 12.3 µM.

Take `CC(=O)NC(C(=O)NC[C@H]1OC(n2cnc3c(N)ncnc32)[C@H](O)[C@@H]1O)C(C)(C)SN=O` (some centres not stated): the affinity on Adenosine transporter 1, expressed as Ki, was 3.47 µM.

Turning to `CC(=O)NC(C(=O)NCCn1cnc2c(N)ncnc21)C(C)(C)SN=O` (configuration not stated), affinity at Adenosine transporter 1 was put at a Ki of 0.62 µM.

At Adenosine transporter 1, `Nc1nc(N)c2c(no[n+]2[O-])n1` showed a Ki of 117 µM.

For the molecule `Nc1ncnc2c1ncn2CCO[N+](=O)[O-]`, the Ki on Adenosine transporter 1 came out at 1.9 µM.

For the molecule `O=[N+]([O-])OCc1ccccc1`, the Ki on Adenosine transporter 1 is greater than 1000 µM.

In the case of `NCCS[As](SCCN)c1ccc(Nc2nc(N)nc(N)n2)cc1` [CYMELARSEN], at Adenosine transporter 1, the Ki was found to be 22.9 µM.

`CC(=O)N[C@@H](C(=O)O)C(C)(C)SN=O` yielded a Ki on Adenosine transporter 1 greater than 1000 µM.

Consider `CC(=O)NC(C(=O)Nc1ccc(N)nc1)C(C)(C)SN=O` (configuration not stated), for which the Ki on Adenosine transporter 1 came out at 404 µM.

`CC(=O)NC(C(=O)Nc1ccc(Nc2nc(N)nc(N)n2)cc1)C(C)(C)SN=O` (configuration not stated) came in with a Ki at Adenosine transporter 1 of 0.58 µM.

B1: Adenosine transporter 1 (Trypanosoma brucei), Q9Y0I0 (protein)
chain: MLGFDSANEFIVYVTFLFFGMSVVVVTNSIFSMPFFFIEYYKYAQGKPDAKPEDPKFWKHMFTYYSIAAFLVELVLASLMLTPIGRRISVTVRLGVGLVIPIVLVFSVMMVTIVTTTETGAKVTIMLIAIANGVAMTLCDAGNAALIAPFPTKFYSSVVWGIAVCGVVTSFFSIVIKASMGGGYHNMLIQSRIYFGLVMFMQVISCALLVLLRKNPYAQKYAAEFRYAARKGIDDKGADGDEGNGAAKGPADQDDDPHGGDDTDKGNVMTATVDPDTMKDMDQVENITTSQQMLMARVWNVFWRVWPMLFACFMVFFTTFLVYPAVYFAIKADTGDGWYLTIAAALFNLGDFLSRLCLQFKALHVSPRWVLIGTFARMLLIIPLVLCVRSIITGPWLPYILVHAWGFTYGYYGGISQIYAPRTGSLTTAGERSLAANWTIISLLGGIFVGAMFALAVNEGLPK
Usually Km stands for the substrate concentration at which the rate is half of its maximum. As to B1, the Km in series [1] came to 0.7 µM.
